Read-outs that look alike come from different tables or passages of the source. Where a SMILES comes first, the peptide text is derived from it. Bridges are numbered along the chain shown (N, C = ends). Roman numbers before positions name the chains, in order.
Experiments:
[1] = system: C. albicans (ATCC 10231 and DF2672R); format: cell-based; details: for time to 4 log reduction (99.99%) in viable cells: ATCC strain
Procedure: The time-kill kinetics was measured for two strains of C. albicans (ATCC 10231 and DF2672R). The cultures were grown overnight in SD broth and the cell concentration was adjusted to 10^5-10^6 CFU/ml with phosphate buffer. The peptide or antifungals were added to the individual cultures. […] The test solution was incubated at 37° C. with constant shaking. 100 μL of the suspension is withdrawn at predetermined time points, serially diluted (10^2 or 10^3 fold) and poured into the SDA plate. The plate was incubated for 48 h at 37° C. for colony counting. The data were expressed in terms of % cell viability relative to the positive control.

[2] = SDS-PAGE pull down assay with cell wall polysaccharides; format: binding; details: chitin or β-D-glucan, 5.5-22 μM, 2 h, 37° C.
Procedure: In another study to probe the mechanism of action, the affinity of B4010 for insoluble polysaccharides such as chitin and β-D-glucan, the major component of fungal cell walls was examined. B4010 (5.5-22 μM) was incubated with chitin (from shrimp shells) or β-D-glucan for 2 h at 37° C. The mixture was centrifuged at 10,000 g and the supernatant was analyzed by SDS-PAGE (4-20%). A control experiment without chitin/β-D-glucan was also performed to quantify peptide binding to the carbohydrate polymers.

C. albicans [3] = assay: Measurement of extracellular cations (ICP-OES); format: cell-based
Procedure: Overnight cultured late logarithmic phase C. albicans was harvested by centrifugation, washed 5 times with 10 mM HEPES (pH 7.0), resuspended in the same buffer and adjusted to an OD600=0.4. To 5 ml of this suspension, B4010 (final concentration 5.5 μM) was added and incubated at 37° C. for 2 h. The mixture was centrifuged at 3,000 g and the presence of K^+, Ca^2+ and Mg^2+ in the supernatant was estimated by Perkin Elmer Dual-view Optima 5300 DV inductively coupled plasma-optical emission spectrometry (ICP-OCS Massachusetts, USA) available at CMMAC facilities (Department of Chemistry, National University of Singapore).

C. albicans [4] = assay: ATP bioluminescence assay (extracellular ATP release); format: cell-based
Procedure: The extracellular ATP levels upon challenging C. albicans with B4010 were determined as reported before (Koshlukova et al., 1999). Cells (OD600≈0.6) were incubated […] with or without various additives for 2 hours at 37° C. with orbital shaking. […] Each tube was then centrifuged at 5000 g for 5 mins. Then 225 μL of boiling TE buffer (50 mM Tris, 2 mM EDTA, pH 7.8) was added to the 25 μl of the supernatant and mixed well. This mixture was boiled again for another 2 minutes and stored at 4° C. until further examination. 100 μL of a luciferin-luciferase ATP assay mixture was added to 100 μL of the supernatant and luminescence was monitored using the Infinite M200 microplate reader (Tecan Group Ltd., Switzerland). […] For dose-dependent studies, the concentration of the peptide was varied from 0.4-44 μM. The extracellular ATP concentration was determined from calibration curve obtained by ATP assay kit (Molecular Probes, OR, USA) as per the manufacturer's instruction.

C. albicans [5] = format: cell-based
Procedure: For the effects of energy poisons and ion channel inhibitors, yeast cells (10^5-10^6 CFU/ml) were incubated for 2 h with or without additives at 37° C. A final concentration of 5.5 μM B4010 peptide was added to the cell suspension and incubated further for another 1.5 h at 37° C. Each cell suspension was further diluted and 100 μl of the cells were plated and incubated at 37° C. SDA plates with additives (and no peptide) served as the positive control. Cell viability was obtained by counting the number of colonies formed in each plate after 48 h incubation at 37° C. The final concentrations of the additives were: CCCP (5 μM), NaN3 (5 mM), 4-AP (1 mM), NPPB (0.5 mM), […] (1 mM) and tetra ethyl ammonium chloride (15 mM). The reported values were averages of two independent duplicate experiments. Control experiments with all the additives were also performed to assess the toxicity of the additives to C. albicans.

[6] = Calcein release from fungal model membrane SUVs; details: peptide:lipid ratio 1:30 and 1:15
Procedure: For the preparation of PC/PE/PI or PS/Erg SUV, the lipids were dissolved in chloroform/methanol (2:1, v/v) in a glass tube. Ergosterol was dissolved in same solvent and added to lipid mixture to make final ergosterol content of 15 wt %. The Lipid-ergosterol mixture was dried using nitrogen gas to form lipid layer. The film was hydrated in a buffer containing 20 mM PBS (pH 7), vortexed and sonicated. Each cycle of sonication (5 sec, 40° C.) is followed by freezing in liquid nitrogen and thawing on a water bath kept at 37° C. The procedure was repeated 5-6 times until an optically clear dispersion appeared. The SUV was divided into two parts. To the first part 50 mM calcein was added and incubated for 1 h. The excess calcein was removed by injecting 100 μL of the calcein-loaded SUV's into a Ultrahydrogel™ 250 (7.8 mm×300 mm) column equilibrated with 20 mM PBS (pH 7.0) and eluted isochratically at a flow rate of 1 ml/min for 1.5 column volumes. The calcein-loaded liposomes were mixed with calcein-free liposome (1:1) to adjust final liposome concentration. Peptide concentration was added to obtain 1:30 or 1:15 peptide:liposome ratio. Changes in the fluorescence signal after addition of peptide or Triton X-100 was measured on a PTI spectrofluorometer, using an excitation wavelength of 480 nm and emission wavelength of 512 nm. The Percentage calcein released at each time point was calculated using the equation: […]
Similar protocol was followed for the preparation of PC/Cholesterol SUVs.

CC(C)[C@H](NC(=O)[C@H](CCCCN)NC(=O)[C@H](CCCNC(=N)N)NC(=O)CNC(=O)[C@@H](N)CCCNC(=N)N)C(=O)N[C@H](C(=O)N[C@@H](CCCNC(=N)N)C(=O)N[C@@H](CCCNC(=N)N)C(=O)NCCCC[C@H](NC(=O)[C@H](CCCNC(=N)N)NC(=O)[C@H](CCCNC(=N)N)NC(=O)[C@@H](NC(=O)[C@@H](NC(=O)[C@H](CCCCN)NC(=O)[C@H](CCCNC(=N)N)NC(=O)CNC(=O)[C@@H](N)CCCNC(=N)N)C(C)C)C(C)C)C(=O)NCCCC[C@H](NC(=O)[C@H](CCCCNC(=O)[C@H](CCCNC(=N)N)NC(=O)[C@H](CCCNC(=N)N)NC(=O)[C@@H](NC(=O)[C@@H](NC(=O)[C@H](CCCCN)NC(=O)[C@H](CCCNC(=N)N)NC(=O)CNC(=O)[C@@H](N)CCCNC(=N)N)C(C)C)C(C)C)NC(=O)[C@H](CCCNC(=N)N)NC(=O)[C@H](CCCNC(=N)N)NC(=O)[C@@H](NC(=O)[C@@H](NC(=O)[C@H](CCCCN)NC(=O)[C@H](CCCNC(=N)N)NC(=O)CNC(=O)[C@@H](N)CCCNC(=N)N)C(C)C)C(C)C)C(=O)N[C@@H](CCCCN)C(=O)O)C(C)C [Peptide B4010] (I: H-RGRKVVRRKKK-OH / II: H-RGRKVVRRK / III: H-RGRKVVRR / IV: H-RGRKVVRR; amide I:9-IV:C, I:10-II:C, II:9-III:C; N-terminus and C-terminus assumed)
time to complete killing ([1]; 4×MIC): 30 min
killing ([1]; ATCC 10231, 1 h, 1): ~91%
killing ([1]; ATCC 10231, 48 h, 2): ~97%
time to 3 log reductions of viable cells ([1]; ATCC and clinical isolates, 2× or 4×MIC): less than 1 h
time to 4 log reduction (99.99%) in viable cells ([1]; 4×MIC): ≤ 20 minutes
time to 4 log reduction (99.99%) in viable cells ([1]; 8×MIC): ≤ 10 minutes
time to complete killing ([1]; C. albicans DF2672R, 2×MIC): 60 min
affinity for cell wall polysaccharides (coprecipitation) [2]: no affinity
increase in K+- and Ca2+-ions (C. albicans [3]): 2 fold
calcium concentration in supernatant (C. albicans [3]; 5.5 μM, 2 h): 5.8 ± 1.3 µM
levels of Na+ and Mg2+ ions (C. albicans [3]; 5.5 μM, 2 h): no significant changes
potassium concentration in supernatant (C. albicans [3]; 5.5 μM, 2 h): 104 ± 4.2 µM
time to maximum ATP efflux (C. albicans [4]; 4×MIC): ≤ 30 min
concentration of maximum ATP release (C. albicans [4]; dose-dependent study): around 4 ×MIC
loss of viability (C. albicans [5]): 54±6%
protection from B4010-induced lethality (C. albicans [5]; cells pre-incubated with CCCP): partial protection
viability (C. albicans [5]; cells pretreated with TEA and 4-AP): significant loss of viability
protection from B4010-induced lethality (C. albicans [5]; presence of NaN3): complete protection
calcein release [6]: about 68%
